Results as given in patent US20100197650A1, “COMPOSITIONS AND METHODS OF TREATMENT COMPRISING CEFTAROLINE” (FOREST LABORATORIES HOLDINGS LTD., priority 2008, published 2010).
≈ marks a conversion by molar mass, not a printed value. Where two headings read alike, the source gives them in different places. Marks after values point to notes of the source that are not given here.

How the values were obtained:
[1] = system: ESBL-producing Klebsiella pneumoniae; assay: Susceptibility testing MIC/MBC, broth microdilution (Example 2); assay type: cell-based; settings: for MIC / MBC: Klebsiella pneumoniae; for MBC: read-out: MBC
ESBL-producing E. coli = assay: as above; assay type: cell-based, Escherichia coli; settings: for MBC / MIC: Escherichia coli; for MBC: read-out: MBC; for MIC: read-out: MIC; for MBC range / MIC range: E. coli (10) clinical isolates
Klebsiella pneumoniae = assay: MIC, broth microdilution (Example 1); assay type: cell-based
Protocol: (§1) Stock solutions of all antibacterial agents were prepared at 80-fold (80×) the final target concentration in the appropriate solvent and the solution was allowed to stand for 60 minutes. All antibacterial agents were in solution under these conditions. The final drug concentrations in the FIC assay plates were set to bracket the MIC value of each agent for each test organism, unless the strain was totally resistant to the test agent.
(§2) The test organisms were originally received from clinical sources, or from the American Type Culture Collection. Upon receipt, the isolates were streaked onto the appropriate growth medium: Chocolate Agar for H. influenzae, Tryptic Soy Agar II (Becton Dickinson, Sparks, Md.) supplemented with 5% defibrinated sheep blood for streptococci, and unsupplemented Tryptic Soy Agar II for all other organisms. Colonies were harvested from these plates and a cell suspension was prepared in Tryptic Soy Broth (Becton Dickinson) containing cryoprotectant. Aliquots were then frozen at −80° C. On the day prior to assay, the frozen seeds of the organisms to be tested in that session were thawed and streaked for isolation onto the appropriate agar medium plates and incubated overnight at 35° C.
(§3) The test medium for H. influenzae was Haemophilus Test Medium. Streptococci were tested in Mueller Hinton II Broth (Becton Dickinson; Lot 6235472) supplemented with 2% lysed horse blood (Cleveland Scientific, Bath, Ohio; Lot H88621). All other organisms were tested in Mueller Hinton II Broth (Becton Dickinson, Lot 6235472). The broth was prepared at 1.05× normal weight/volume to offset the 5% volume of the drugs in the final test plates.
(§4) In order to select the proper test concentrations for each drug combination, minimal inhibitory concentration (MIC) values were first determined using the broth microdilution method previously described (Clinical and Laboratory Standards Institute. Methods for Dilution Antimicrobial Susceptibility Tests for Bacteria That Grow Aerobically; Approved Standard—Seventh Edition. Clinical and Laboratory Standards Institute document M7-A7 [ISBN 1-56238-587-9]. Clinical and Laboratory Standards Institute, 940 West Valley Road, Suite 1400, Wayne, Pa. 19087-1898 USA, 2006).
(§5) The wells of standard 96-well microdilution plates (Falcon 3918) were filled with 150 μL of 100% DMSO using the Multidrop 384. These plates were used to prepare the drug “mother plates” which provided the serial drug dilutions for the drug combination plates. The Biomek 2000 was used to transfer 150 μl of each stock solution (80×) from the wells in Column 1 of a deep well plate to the corresponding wells in Column 1 of the mother plate and to make seven 2-fold serial dilutions. Two mother plates, one for each drug, were combined to form a “checkerboard” pattern by transfer of equal volumes (using a multi-channel pipette) to the drug combination plate. Row H and Column 8 each contained serial dilutions of one of the agents alone for determination of the MIC.
(§6) Plates were stacked 3 high, covered with a lid on the top plate, placed in plastic bags, and incubated at 35° C. for approximately 20 hours. Following incubation, the microplates were removed from the incubator and viewed from the bottom using a ScienceWare plate viewer. Prepared reading sheets were marked for the MIC of drug 1 (row H), the MIC of drug 2 (column 8) and the wells of the growth-no growth interface.

Escherichia coli = assay: MIC, broth microdilution (Example 1); assay type: cell-based
Protocol: as §1, §2, §3, §4, §5, §6

[2] = system: AmpC-derepressed Enterobacter cloacae; assay: microbe, parasite or virus in culture; assay type: cell-based; settings: for MBC range / MIC range: E. cloacae (10) clinical isolates; for MBC / MIC: Enterobacter cloacae
P. aeruginosa = assay: Susceptibility testing MIC/MBC, broth microdilution (Example 2); assay type: cell-based, Pseudomonas aeruginosa; settings: for MBC / MIC: Pseudomonas aeruginosa; for MBC: read-out: MBC; for MIC: read-out: MIC
Pseudomonas aeruginosa = assay: MIC, broth microdilution (Example 1); assay type: cell-based
Protocol: as §1, §2, §3, §4, §5, §6

Streptococcus pneumoniae = assay: MIC, broth microdilution (Example 1); assay type: cell-based
Protocol: as §1, §2, §3, §4, §5, §6

Haemophilus influenzae = assay: MIC, broth microdilution (Example 1); assay type: cell-based; settings: Haemophilus influenzae, read-out: MIC
Protocol: as §1, §2, §3, §4, §5, §6

Streptococcus pyogenes = assay: MIC, broth microdilution (Example 1); assay type: cell-based; settings: Streptococcus pyogenes, read-out: MIC
Protocol: as §1, §2, §3, §4, §5, §6

[3] = K. pneumonia isolate no. 5427, read-out: MIC
[4] = K. pneumonia isolate no. 5436, read-out: MIC
[5] = Klebsiella pneumoniae, K. pneumoniae 1340, read-out: MIC
[6] = Klebsiella pneumoniae, K. pneumoniae 1461, read-out: MIC
[7] = Escherichia coli, E. coli 1587, read-out: MIC
[8] = Escherichia coli, E. coli 2273 (ESBL), read-out: MIC
[9] = K. pneumonia (10) clinical isolates
[10] = P. aeruginosa (20) clinical isolates

## C[C@H]1[C@H](NC(=O)/C(=N\OC(C)(C)C(=O)O)c2csc(N)n2)C(=O)N1S(=O)(=O)O [Aztreonam]
[1]; 1 K. pneumoniae isolate, read-out: MIC
  MIC: 0.5 µg/mL (≈ 1.15 µM)
[1]; K. pneumonia isolate no. 5427
  MBC: 1 µg/mL (≈ 2.3 µM)
[1]; [3]
  MIC: 0.5 µg/mL (≈ 1.15 µM)
[1]; K. pneumonia isolate no. 5436
  MBC: 64 µg/mL (≈ 147 µM)
[1]; [4]
  MIC: 64 µg/mL (≈ 147 µM)
[1]; all K. pneumoniae except 1 isolate, read-out: MIC values
  MIC: ≥ 8 µg/mL
ESBL-producing E. coli; E. coli isolate no. 5401
  MBC: 0.25 µg/mL (≈ 0.574 µM)
  MIC: 0.25 µg/mL (≈ 0.574 µM)
ESBL-producing E. coli; E. coli isolate no. 5411
  MBC: 32 µg/mL (≈ 73.5 µM)
  MIC: 8 µg/mL (≈ 18.4 µM)
Klebsiella pneumoniae; [5]
  MIC: 0.12 µg/mL
Klebsiella pneumoniae; [6]
  MIC: 0.25 µg/mL
Escherichia coli; [7]
  MIC: 0.25 µg/mL
Escherichia coli; [8]
  MIC: 16 µg/mL

## NCC[C@H](O)C(=O)N[C@@H]1C[C@H](N)[C@@H](O[C@H]2O[C@H](CN)[C@@H](O)[C@H](O)[C@H]2O)[C@H](O)[C@H]1O[C@H]1O[C@H](CO)[C@@H](O)[C@H](N)[C@H]1O [Amikacin]
[2]
  MBC range: 1 to 8 µg/mL
  MIC range: 0.5 to 4 µg/mL
[2]; E. cloacae isolate no. 4073
  MBC: 8 µg/mL (≈ 13.7 µM)
  MIC: 1 µg/mL (≈ 1.71 µM)
[2]; E. cloacae isolate no. 5420
  MBC: 2 µg/mL (≈ 3.42 µM)
  MIC: 1 µg/mL (≈ 1.71 µM)
[1]; [9]
  MBC range: 1 to 128 µg/mL
  MIC range: 1 to 32 µg/mL
[1]; K. pneumonia isolate no. 5427
  MBC: 2 µg/mL (≈ 3.42 µM)
[1]; [3]
  MIC: 2 µg/mL (≈ 3.42 µM)
[1]; K. pneumonia isolate no. 5436
  MBC: 2 µg/mL (≈ 3.42 µM)
[1]; [4]
  MIC: 1 µg/mL (≈ 1.71 µM)
P. aeruginosa; [10]
  MBC range: 2 to 64 µg/mL
  MIC range: 2 to 16 µg/mL
P. aeruginosa; P. aeruginosa isolate no. 796
  MBC: 32 µg/mL (≈ 54.6 µM)
  MIC: 16 µg/mL (≈ 27.3 µM)
P. aeruginosa; P. aeruginosa isolate no. 956
  MBC: 64 µg/mL (≈ 109 µM)
  MIC: 4 µg/mL (≈ 6.83 µM)
P. aeruginosa; P. aeruginosa isolate no. 1019
  MBC: 4 µg/mL (≈ 6.83 µM)
  MIC: 4 µg/mL (≈ 6.83 µM)
P. aeruginosa; P. aeruginosa isolate no. 1037
  MBC: 4 µg/mL (≈ 6.83 µM)
  MIC: 2 µg/mL (≈ 3.42 µM)
ESBL-producing E. coli
  MBC range: 4 to 64 µg/mL
  MIC range: 1 to 16 µg/mL
ESBL-producing E. coli; E. coli isolate no. 5401
  MBC: 4 µg/mL (≈ 6.83 µM)
  MIC: 2 µg/mL (≈ 3.42 µM)
ESBL-producing E. coli; E. coli isolate no. 5411
  MBC: 16 µg/mL (≈ 27.3 µM)
  MIC: 8 µg/mL (≈ 13.7 µM)
Pseudomonas aeruginosa; P. aeruginosa 2555
  MIC: 8 µg/mL
Pseudomonas aeruginosa; P. aeruginosa 2559
  MIC: 4 µg/mL
Klebsiella pneumoniae; [5]
  MIC: 1 µg/mL
Klebsiella pneumoniae; [6]
  MIC: 1 µg/mL
Escherichia coli; [7]
  MIC: 4 µg/mL
Escherichia coli; [8]
  MIC: 8 µg/mL

## C[C@H]1COc2c(N3CCN(C)CC3)c(F)cc3c(=O)c(C(=O)O)cn1c23 [Levofloxacin]
[2]
  MBC range: 0.03 to 128 µg/mL
  MIC range: 0.03 to 64 µg/mL
[2]; E. cloacae isolate no. 4073
  MBC: 0.06 µg/mL (≈ 0.166 µM)
  MIC: 0.06 µg/mL (≈ 0.166 µM)
[2]; E. cloacae isolate no. 5420
  MBC: 0.06 µg/mL (≈ 0.166 µM)
  MIC: 0.06 µg/mL (≈ 0.166 µM)
[1]; K. pneumonia isolate no. 5427
  MBC: 2 µg/mL (≈ 5.53 µM)
[1]; [3]
  MIC: 0.25 µg/mL (≈ 0.692 µM)
[1]; K. pneumonia isolate no. 5436
  MBC: 4 µg/mL (≈ 11.1 µM)
[1]; [4]
  MIC: 4 µg/mL (≈ 11.1 µM)
P. aeruginosa; [10]
  MIC range: 0.25 to 32 µg/mL
P. aeruginosa; P. aeruginosa isolate no. 796
  MBC: 2 µg/mL (≈ 5.53 µM)
  MIC: 1 µg/mL (≈ 2.77 µM)
P. aeruginosa; P. aeruginosa isolate no. 956
  MBC: 1 µg/mL (≈ 2.77 µM)
  MIC: 0.5 µg/mL (≈ 1.38 µM)
P. aeruginosa; P. aeruginosa isolate no. 1019
  MBC: 1 µg/mL (≈ 2.77 µM)
  MIC: 0.5 µg/mL (≈ 1.38 µM)
P. aeruginosa; P. aeruginosa isolate no. 1037
  MBC: 0.5 µg/mL (≈ 1.38 µM)
  MIC: 0.25 µg/mL (≈ 0.692 µM)
ESBL-producing E. coli
  MBC range: 0.06 to 32 µg/mL
  MIC range: 0.03 to 32 µg/mL
ESBL-producing E. coli; E. coli isolate no. 5401
  MBC: 32 µg/mL (≈ 88.6 µM)
  MIC: 32 µg/mL (≈ 88.6 µM)
ESBL-producing E. coli; E. coli isolate no. 5411
  MBC: 16 µg/mL (≈ 44.3 µM)
  MIC: 8 µg/mL (≈ 22.1 µM)
Streptococcus pneumoniae; S. pneumoniae 0866 (PSSP)
  MIC: 1 ^ μg/mL
Streptococcus pneumoniae; S. pneumoniae 0869 (PSSP)
  MIC: 1 ^ μg/mL
Streptococcus pneumoniae; S. pneumoniae 0880 (PRSP)
  MIC: >4^a μg/mL
Streptococcus pneumoniae; S. pneumoniae 0884 (PRSP)
  MIC: 1 ^ μg/mL
Streptococcus pneumoniae; Streptococcus pneumoniae, PRSP, S. pneumoniae 0880 (PRSP), read-out: MIC
  MIC: > 4 µg/mL
Streptococcus pneumoniae; Streptococcus pneumoniae, PRSP, S. pneumoniae 0884 (PRSP), read-out: MIC
  MIC: 1 µg/mL
Streptococcus pneumoniae; Streptococcus pneumoniae, S. pneumoniae 0866 (PSSP), read-out: MIC
  MIC: 1 µg/mL
Streptococcus pneumoniae; Streptococcus pneumoniae, S. pneumoniae 0869 (PSSP), read-out: MIC
  MIC: 1 µg/mL
Haemophilus influenzae; H. influenzae 1224
  MIC: 0.015 µg/mL
Haemophilus influenzae; H. influenzae 2797 (BLNAR)
  MIC: 0.015 µg/mL
Haemophilus influenzae; H. influenzae 2798 (BLNAR)
  MIC: 0.015 µg/mL
Haemophilus influenzae; H. influenzae 2799 (BLNAR)
  MIC: 0.015 µg/mL
Klebsiella pneumoniae; K. pneumoniae 1461
  MIC: >4^a μg/mL
Klebsiella pneumoniae; [5]
  MIC: 0.06 µg/mL
Klebsiella pneumoniae; [6]
  MIC: > 4 µg/mL
Escherichia coli; E. coli 2273 (ESBL)
  MIC: >4^a μg/mL
Escherichia coli; [7]
  MIC: 0.06 µg/mL
Escherichia coli; [8]
  MIC: > 4 µg/mL
Streptococcus pyogenes; S. pyogenes 0717
  MIC: 0.5 µg/mL
Streptococcus pyogenes; S. pyogenes 0722
  MIC: 0.5 µg/mL
